Experimental data taken from patent US7842711B2, “Indazolecarboxamide derivatives for the treatment and prevention of malaria” (Sanofi-Aventis, priority 2004, dated 2010).
Counter-ions that a name gives are not always drawn. Like-named read-outs stand apart in the source and are kept apart here.

Columns and labels:
[1] = tested on: P. falciparum strain FcM29 (highly resistant to chloroquine); assay: antimalarial activity assay, radioactive micromethod of Desjardins (tritiated hypoxanthine incorporation), strain FcM29; assay type: cell-based; conditions: Plasmodium falciparum, Erythrocyte, read-out: IC50 (concentration of the compound required to inhibit the parasite growth by 50%)
Protocol: Two strains of P. falciparum are used, the origin of which is Colombia (FcB1, strain moderately resistant to chloroquine) and Cameroon (FcM29, strain highly resistant to chloroquine). These strains of P. falciparum are cultured continuously in human red blood cells according to the method of Trager and Jensen (W. Trager, J. Jensen, Science, 1976, 193, 673-675): the parasites are maintained in human red blood cells (O±), diluted to 2% parasiteamia in an RPMI 1640 medium supplemented with 25 mM of Hepes, 24 mM of NaHCO3 and 2 mM of L-glutamine, and supplemented with 5% of human serum of all groups. The parasites are incubated at 37° C. in a humid atmosphere and at 5% CO2.
The antimalarial activity assays are carried out according to the radioactive micromethod of Desjardins (R. E. Desjardins, C. J. Canfield, J. D. Haynes, J. D. Chulay, Antimicrob. Agents Chemother., 1979, 16, 710-718). Each molecule is tested in triplicate. The assays are carried out in 96-well microplates. The strains of P. falciparum are cultured in solutions of RPMI 1640 supplemented with 5% of human serum with a 2% haematocrit and a 1.5% parasitaemia. For each assay, the parasites are incubated with decreasing concentrations of compounds of formula (I) for 48 h at 37° C. in a humid atmosphere and at 5% CO2.
The first dilution of the test compound is prepared at 1 mg/ml in dimethyl sulphoxide. The dilution range for the successive daughter solutions is also prepared in dimethyl sulphoxide. Each daughter dilution is subsequently diluted to 1/50 in RPMI 1640 supplemented with 5% of human serum, all the dilutions being prepared at 37° C. These dilutions are then added to the parasites in culture in the microplates. After addition of the test compound, the parasites are in culture in RPMI 1640 containing 5% of human serum and 1% of dimethyl sulphoxide. The parasite growth is measured by the incorporation of tritiated hypoxanthine (added 24 h after the beginning of exposure to the test compound) compared with incorporation in the absence of the test compound (taken as 100%). The IC50 values (concentration of the compound required to inhibit the parasite growth by 50%) are determined by plotting the percentage inhibition as a function of the log of the dose by means of the GraphPad Prism 4® processing software (GraphPad software, Inc., 5755 Oberlin Drive, # 110, San Diego, Calif. 92121, USA).

[2] = strain FcM29, 48 h incubation in human red blood cells, tritiated hypoxanthine incorporation

| Compound | melting point [°C] | IC50 [1, 2] [nM] | IC50 ([1]; 48 h) [nM] |
| --- | --- | --- | --- |
| CCNCc1cccc(NC(=O)c2n[nH]c3ccc(-c4cncc5ccccc45)cc23)c1 (as salt: HCl) [Compound No. 14, N-{3-[(Ethylamino)methyl]phenyl}-5-isoquinolin-4-yl-1H-indazole-3-carboxamide dihydrochloride] | > 135 |  |  |
| O=C(Nc1ccncc1)c1n[nH]c2ccc(-c3cncc4ccccc34)cc12 [Compound No. 3, N-(Pyridin-4-yl)-5-isoquinolin-4-yl-1H-indazole-3-carboxamide] | > 250 | 600 |  |
| O=C(Nc1ccncc1)c1n[nH]c2ccc(-c3cncc4[nH]ccc34)cc12 [Compound No. 10, N-(Pyridin-4-yl)-5-(1H-pyrrolo[2,3-c]pyridin-4-yl)-1H-indazole-3-carboxamide] | > 250 | 130 |  |
| O=C(Nc1ccncc1)c1n[nH]c2ccc(-c3cn[nH]c3)cc12 [Compound No. 11, 5-(1H-Pyrazol-4-yl)-N-(pyridin-4-yl)-1H-indazole-3-carboxamide] | > 250 | 800 |  |
| CCNCc1cccc(NC(=O)c2n[nH]c3ccc(-c4cncc5ccccc45)cc23)c1 [Compound No. 14, N-{3-[(Ethylamino)methyl]phenyl}-5-isoquinolin-4-yl-1H-indazole-3-carboxamide dihydrochloride] |  |  | 272 |
| O=C(Nc1ccncc1)c1n[nH]c2ccc(-c3ccc(Cl)nc3)cc12 [compound 12, 5-(6-chloropyridin-3-yl)-N-pyridin-4-yl-1H-indazole-3-carboxamide] | > 250 | 800 |  |
| CCNCc1cccc(NC(=O)c2n[nH]c3ccc(-c4cncc5[nH]ccc45)cc23)c1 [compound 21, N-{3-[(ethylamino)methyl]phenyl}-5-(1H-pyrrolo[2,3-c]pyridin-4-yl)-1H-indazole-3-carboxamide] | > 250 | 406 |  |
